The values that follow are results of earlier work, collected in US20150335557A1, “ANTI-PLAQUE ORAL COMPOSITIONS” (priority 2012, published 2015).

For the series the following is noted: @ 79° F.

For `CS(C)(=O)=O` [MSM, methylsulfonylmethane], the water solubility is listed as 34 % w/v.
